Laboratory results reported in patent publication US20170333509A1, “MAILLARD REACTION PRODUCT-DECOMPOSING AGENT” (ARKRAY, Inc., priority 2016, published 2017).

Legend:
[1] = tested on: AGEs modified bovine serum albumin (AGE-BSA) cross-linked to collagen; experiment: AGEs Cross-Link Breaking Effect Confirmatory Test 2 (AGE-BSA cross-linked to collagen-coated microplate, ELISA); assay type: biochemical; conditions: cross-link breaking reaction at 37° C. for 18 hours
Procedure: The test was carried out according to the description in Sara Vasan et al. (Nature, 382, pp 275-278 (1996)).
300 μL/well of SuperBlock T20 (PBS) Blocking Buffer was added to a commercially available 96-well microplate precoated with collagen, which then was reacted at 37° C. for one hour. After the reaction, it was washed with 0.05% polyethylene (20) sorbitan monolaurate (Tween 20)/PBS(−), and then AGEs modified bovine serum albumin (AGE-BSA) was added to each well of the microplate, which then was subjected to a crosslinking reaction at 37° C. for four hours. After the reaction, it was washed with Tween 20/PBS(−). Thereafter, a plant extract was added to each well and thereby it was subjected to a cross-link breaking (cleaving) reaction at 37° C. for 18 hours. After that, it was washed with Tween 20/PBS(−) and a primary antibody (anti-albumin bovine serum rabbit-polyclonal) was added thereto, which then was reacted at room temperature for 30 minutes. […] As a reaction stop solution, 1N HCl was added thereto, and the absorbance at 450 nm (dominant wavelength)/630 nm (complementary wavelength) was measured with a microplate reader. The amount of AGE-BSA that remained was determined from a calibration curve in which the amount of AGE-BSA was varied. Furthermore, the AGE-BSA decomposition rate (Collagen cross-link decomposition rate) was determined using the following formula. […]

[2] = AGEs Cross-Link Breaking Effect Confirmatory Test 1 (benzoic acid from PPD by reverse-phase HPLC); assay type: biochemical; conditions: plant extract (hot water, 80° C.) or 10 mmol/L PTB : 10 mmol/L PPD : 0.2 mol/L phosphate buffer pH 7.4 = 5:1:4, 37° C., eight hours, n=3
Procedure: The test was carried out according to the description in […] al. (Nature, 382, pp 275-278 (1996)). […] A plant extract, 10 mmol/L of PPD, and 0.2 mol/L of phosphate buffer solution (pH 7.4) were mixed together at a ratio of 5:1:4 and then were reacted at 37° C. for eight hours (n=3). After completion of the reaction, hydrochloric acid was added thereto to stop the reaction. […] The amount of benzoic acid contained in the reaction solution was determined by subtracting the amount of benzoic acid contained in the sample, which was measured separately. Since 1 mol of PPD produces 1 mol of benzoic acid, the cross-link breaking rate was calculated by the following formula. Cross-link breaking rate (%)={(A-B)/C}×100 A: The amount of benzoic acid contained in the reaction solution B: The amount of benzoic acid contained in the sample C: The amount of PPD provided for the reaction (the amount of the substrate) As a control, a test was carried out using 10 mmol/L of PTB instead of the plant extract.

Compound | Collagen Cross-Link Decomposition Rate (%) (AGE-BSA decomposition rate) [1] | Amount of Remaining AGE-BSA ([1]; absorbance 450 nm/630 nm, calibration curve) | Cross-Link Breaking Rate (%) (Mean Value ± Standard Deviation) [2]
O=C1O[C@H]2[C@@H]3OC(=O)c4cc(O)c(O)c(O)c4-c4c(O)c(O)c5oc(=O)c6c(c(O)c(O)c7oc(=O)c4c5c76)-c4c(cc(O)c(O)c4O)C(=O)OC[C@H]3OC(O)[C@@H]2OC(=O)c2cc(O)c(O)c(O)c2-c2c1cc(O)c(O)c2O (mixture of isomers) [Punicalagin, punicalagin] | 65.7% | 343.3 ng | 
O=C(C[n+]1ccsc1)c1ccccc1.[Br-] [PTB, N-phenacylthiazolium bromide] |  |  | 20.47 ± 0.29%
